Test results taken from US12558353B2 (CELLTAXIS, LLC, priority 2018, dated 2026).

Legend:
[1] = system: adult patients with cystic fibrosis; assay: EMPIRE-CF Phase II randomized placebo-controlled trial: pulmonary exacerbations; assay type: in vivo, human; settings: for adjusted mean (95% CI) annualized pulmonary exacerbation rate: all lung disease phenotypes; for adjusted mean (95% CI) annualized pulmonary exacerbation rate / proportion of patients who did not experience a pulmonary exacerbation during the study period: 48 weeks; for patients who did not have a pulmonary exacerbation during the study: baseline FEV1pp>75% (mild disease)
Excerpt: EMPIRE-CF was a Phase II multicenter, randomized, double-blind, placebo-controlled, parallel-group study to evaluate the efficacy and safety of acebilustat in adult patients with CF (NCT02443688). The study consisted of a 48-week treatment period and follow-up visit 4 weeks after treatment completion. Screening visits occurred up to 21 days prior to the first study drug dose (FIG. 2).
Patients were enrolled from 69 centers in the USA, Canada, and Europe. All centers were experienced in CF care and the conduct of clinical trials. In brief, adult women and men 18-30 years old with a documented diagnosis of CF, an FEV1pp≥50% at screening and at least one pulmonary exacerbation in the previous year were enrolled. Baseline demographics are presented in the section below.
Patients were randomized 1:1:1 to receive either once-daily oral acebilustat 50 mg or 100 mg (Celtaxsys, Atlanta, GA, USA), or placebo supplied as capsules. The two acebilustat doses were selected based on the levels of reduction of serum LTB4 production seen in Phase I studies.
Pulmonary exacerbations were defined as the requirement for oral, inhaled or intravenous antibiotics for four or more signs or symptoms according to the modified Fuch's criteria (change in sputum; new or increased hemoptysis; increased cough; increased dyspnea; malaise, fatigue or lethargy; temperature >38° C.; anorexia or weight loss; sinus pain or tenderness; change in sinus discharge; change in physical examination of the chest; ≥10% absolute decrease in FEV1pp from the previously recorded value; radiographic changes indicative of pulmonary infection) [Fuchs et al., 1994], referred collectively (antibiotics plus the four or more signs and symptoms) as expanded Fuchs criteria. The date the pulmonary exacerbation began was defined as the first day of antibiotic use.
Pulmonary exacerbations were analyzed both as the time to first pulmonary exacerbation and the rate of pulmonary exacerbations. The time to first protocol defined-pulmonary exacerbation were analyzed using a Cox proportional hazards model. The number of protocol-defined pulmonary exacerbations reported through the Week 48/Early Termination visit were annualized (where a year was defined as 52 weeks) analyzed using a negative binomial regression. The two active doses were compared to placebo individually as well as pooled together using a contrast statement similar to that used for the primary analysis. Point estimates, standard errors, and 95% CIs for the mean of number of pulmonary exacerbations were presented. The difference in means between each CTX-4430 group from placebo were presented along with standard errors and 95% CIs. Spirometry-based endpoints were analyzed using the same methods as the primary endpoint. Analyses of sputum DNA and elastase and serum high-sensitivity C-reactive protein were based upon descriptive statistics by treatment group.
The annual rate of pulmonary exacerbations was calculated by standard methods for each treatment group.

[2] = Phase I studies; cited from earlier work
[3] = 100 mg dose, baseline FEV1pp>75%, FAP
[4] = FEV1pp greater than 75 and concomitant CFTR modulator therapy
[5] = FEV1pp>75 at baseline, 100 mg dose
[6] = acebilustat-treated patients overall, analysis population not given
[7] = baseline FEV1pp>75%, FAP, 50 mg
[8] = baseline FEV1pp>75%, FAP, 100 mg
[9] = concomitant CFTR modulator therapy, 100 mg dose

O=C(O)c1ccc(CN2C[C@@H]3C[C@H]2CN3Cc2ccc(Oc3ccc(-c4ncco4)cc3)cc2)cc1 [acebilustat, 4-{[(1S,4S)-5-({4-[4-oxazol-2-yl-phenoxy]phenyl}methyl)-2,5-diazabicyclo[2.2.1]heptan-2-yl]methyl}benzoic acid]
rate of pulmonary exacerbations requiring hospitalization as compared to placebo [1, 3]: lower rate
rate of pulmonary exacerbations requiring intravenous antibiotics as compared to placebo [1, 3]: lower the rate
Annualized Rate of Pulmonary Exacerbation (Adjusted Mean) ([1]; Baseline ppFEV1 >60, 50 mg): 1.44
Annualized Rate of Pulmonary Exacerbation, % difference from Placebo ([1]; Baseline ppFEV1 >60, 50 mg): −2%
Annualized Rate of Pulmonary Exacerbation (Adjusted Mean) ([1]; Baseline ppFEV1 >60, 100 mg): 1.27
Annualized Rate of Pulmonary Exacerbation, % difference from Placebo ([1]; Baseline ppFEV1 >60, 100 mg): −14%
Annualized Rate of Pulmonary Exacerbation (Adjusted Mean) ([1]; Baseline ppFEV1 >65, 50 mg): 1.25
Annualized Rate of Pulmonary Exacerbation, % difference from Placebo ([1]; Baseline ppFEV1 >65, 50 mg): −14%
Annualized Rate of Pulmonary Exacerbation (Adjusted Mean) ([1]; Baseline ppFEV1 >65, 100 mg): 1.05
Annualized Rate of Pulmonary Exacerbation, % difference from Placebo ([1]; Baseline ppFEV1 >65, 100 mg): −28%
Annualized Rate of Pulmonary Exacerbation (Adjusted Mean) ([1]; Baseline ppFEV1 >68, 50 mg): 1.12
Annualized Rate of Pulmonary Exacerbation, % difference from Placebo ([1]; Baseline ppFEV1 >68, 50 mg): −7%
Annualized Rate of Pulmonary Exacerbation (Adjusted Mean) ([1]; Baseline ppFEV1 >68, 100 mg): 0.81
Annualized Rate of Pulmonary Exacerbation, % difference from Placebo ([1]; Baseline ppFEV1 >68, 100 mg): −33%
Annualized Rate of Pulmonary Exacerbation (Adjusted Mean) ([1]; Baseline ppFEV1 >70, 50 mg): 1.2
Annualized Rate of Pulmonary Exacerbation, % difference from Placebo ([1]; Baseline ppFEV1 >70, 50 mg): −22%
Annualized Rate of Pulmonary Exacerbation (Adjusted Mean) ([1]; Baseline ppFEV1 >70, 100 mg): 0.92
Annualized Rate of Pulmonary Exacerbation, % difference from Placebo ([1]; Baseline ppFEV1 >70, 100 mg): −40%
Annualized Rate of Pulmonary Exacerbation (Adjusted Mean) ([1]; Baseline ppFEV1 >75, 50 mg): 1.28
Annualized Rate of Pulmonary Exacerbation, % difference from Placebo ([1]; Baseline ppFEV1 >75, 50 mg): −20%
Annualized Rate of Pulmonary Exacerbation (Adjusted Mean) ([1]; Baseline ppFEV1 >75, 100 mg): 0.84
Annualized Rate of Pulmonary Exacerbation, % difference from Placebo ([1]; Baseline ppFEV1 >75, 100 mg): −48%
time at which divergence in pulmonary exacerbation from placebo occurred ([1]; FAP and PP analysis): approximately 4 months
adjusted mean (95% CI) annualized pulmonary exacerbation rate ([1]; FAP, 50 mg once daily oral): 1.46 (1.13, 1.89)
adjusted mean (95% CI) annualized pulmonary exacerbation rate ([1]; FAP, 100 mg once daily oral): 1.57 (1.22, 2.02)
adjusted mean (95% CI) annualized pulmonary exacerbation rate ([1]; FAP, combined acebilustat groups): 1.51 (1.26, 1.81)
time to first pulmonary exacerbation, hazard ratio versus placebo (95% CI) ([1]; FAP, 50 mg): 0.86 (0.563, 1.308)
proportion of patients who did not experience a pulmonary exacerbation during the study period ([1]; FAP, 50 mg): 39%
time to first pulmonary exacerbation, hazard ratio versus placebo (95% CI) ([1]; FAP, 100 mg): 0.88 (0.576, 1.339)
proportion of patients who did not experience a pulmonary exacerbation during the study period ([1]; FAP, 100 mg): 38%
time to first pulmonary exacerbation, hazard ratio versus placebo (95% CI) ([1]; FAP, acebilustat combined group): 0.87 (0.605, 1.246)
proportion of patients who did not experience a pulmonary exacerbation during the study period ([1]; FAP, combined acebilustat dose group): 38%
response to acebilustat treatment (rate of exacerbations, hazard ratio) ([1]; FEV1 at or below 75% (≤75%)): did not exhibit the same level of response
decrease in the rate of pulmonary exacerbations versus placebo [1, 4]: 54%
higher proportion of patients exacerbation free at 48 weeks versus placebo [1, 4]: 165%
decrease in the rate of pulmonary exacerbations versus placebo ([1]; FEV1pp greater than 75 and concomitant CFTR modulator therapy, 100 mg dose): 65%
higher proportion of patients exacerbation free after 48 weeks of treatment versus placebo [1, 5]: 100%
reduction in PEx rate versus placebo [1, 5]: 48%
reduction in risk of experiencing first exacerbation versus placebo [1, 5]: 48%
more patients with no PEx during the study compared with placebo [1, 6]: 32%
reduced risk in progressing to first PEx versus placebo [1, 6]: 22%
reduction in PEx versus placebo [1, 6]: 18%
response to acebilustat treatment (rate of pulmonary exacerbations) ([1]; baseline FEV1pp at or below the median (≤68%)): did not exhibit the same level of response
annual rate of pulmonary exacerbations versus placebo ([1]; baseline FEV1pp higher than the median (>68%)): lower annual rate of pulmonary exacerbations versus placebo
patients who did not have a pulmonary exacerbation during the study ([1]; 50 mg): 48%
patients who did not have a pulmonary exacerbation during the study ([1]; 100 mg): 50%
patients who did not have a pulmonary exacerbation during the study ([1]; combined acebilustat group): 49%
adjusted mean (95% CI) annualized rate of pulmonary exacerbations [1, 7]: 1.28 (0.84, 1.96)
time to first pulmonary exacerbation, hazard ratio (95% CI) versus placebo [1, 7]: 0.62 (0.304, 1.274)
adjusted mean (95% CI) annualized rate of pulmonary exacerbations [1, 8]: 0.84 (0.49, 1.44)
time to first pulmonary exacerbation, hazard ratio (95% CI) versus placebo [1, 8]: 0.52 (0.245, 1.101)
time to first pulmonary exacerbation, hazard ratio (95% CI) versus placebo ([1]; baseline FEV1pp>75%, FAP, acebilustat combined group): 0.57 (0.307, 1.051)
adjusted mean (95% CI) annualized rate of pulmonary exacerbations ([1]; baseline FEV1pp>75%, FAP, combined acebilustat groups): 1.04 (0.74, 1.46)
reduction in rate of PEx versus CFTR modulators and placebo ([1]; concomitant CFTR modulator therapy, regardless of disease severity, 100 mg dose): 14%
higher proportion of patients with no exacerbations versus CFTR modulators and placebo [1, 9]: 51%
increased time to first exacerbation versus CFTR modulators and placebo [1, 9]: 27%
higher percentage of patients that were exacerbation free ([1]; patients off CFTR modulator therapy): about 15%
drug-related serious adverse events [2]: no drug-related serious AEs
tolerability [2]: well tolerated
